{
  "source": "patent EP3733197A1",
  "about": "“ANAEROBIC ANTIOXIDANT COMPOSITION” (Pitcher, Stephen N., priority 2019, dated 2020)",
  "origin": "cited, not measured here",
  "key": {"[1]": {"conditions": "in vivo"}},
  "data": [
    {"smiles": "CC(=O)N[C@@H](CS)C(=O)O", "note": "[NAC, N-acetylcysteine]", "values": [
      {"measurement": "half-life", "setting": "[1]", "value": "approximately 5.6 hours"},
      {"measurement": "renally excreted by the body", "setting": "[1]", "value": 30, "unit": "%"},
      {"measurement": "pregnancy risk", "setting": "in vivo", "value": "category B"},
      {"measurement": "associated adverse effects", "setting": "orally administered or inhaled", "value": "drowsiness, stomatitis, clamminess, rhinorrhea, and hemoptysis"}
    ]}
  ]
}
